Experimental data: BigSolDB 2.1

O=C(O)/C=C/c1cccc(O)c1
solubility (mole fraction)
Settings | in ethanol | in ethyl acetate | in isobutanol | in isopropanol | in methanol | in methyl acetate | in n-butanol | in n-propanol | in n-propyl acetate
293.15 K | 0.0594 | 0.0177 | 0.0317 | 0.0611 | 0.0516 | 0.0189 | 0.0474 | 0.0493 | 0.0155
298.15 K | 0.0632 | 0.0201 | 0.0351 | 0.0662 | 0.0557 | 0.0212 | 0.0513 | 0.0533 | 0.0184
303.15 K | 0.0687 | 0.0228 | 0.0397 | 0.0724 | 0.0611 | 0.0239 | 0.0566 | 0.0585 | 0.0212
308.15 K | 0.0742 | 0.0256 | 0.0449 | 0.0794 | 0.0669 | 0.0276 | 0.0617 | 0.064 | 0.0236
313.15 K | 0.0802 | 0.0294 | 0.0502 | 0.0859 | 0.0731 | 0.0315 | 0.0677 | 0.0701 | 0.0269
318.15 K | 0.087 | 0.0329 | 0.0561 | 0.0933 | 0.0801 | 0.0358 | 0.0741 | 0.0766 | 0.0302
323.15 K | 0.0949 | 0.0377 | 0.0628 | 0.101 | 0.0887 | 0.0402 | 0.0806 | 0.0842 | 0.035
328.15 K | 0.103 | 0.0438 | 0.0706 | 0.109 | 0.0995 | 0.0458 | 0.0887 | 0.093 | 0.041
333.15 K | 0.114 | 0.0489 | 0.0802 | 0.12 | 0.113 | – | 0.0989 | 0.104 | 0.0471
